Bridge positions count the residues as written; N and C are the ends. Square brackets hold non-standard residues; d marks the D form. Peptide text beside a SMILES is read from it. * marks the point of attachment. Octanoyl = CCCCCCCC(=O)*; Dab = NCC[C@H](N)C(=O)O; Abu = CC[C@H](N)C(=O)O
Tests used:
E. coli CCUG41422 = experiment: E-test MIC of antibiotics on Mueller-Hinton agar with or without NAB7061 (4 μg/ml); sensitization factor = MIC ratio absence/presence; format: cell-based, Escherichia coli
Procedure: (§1) MICs were determined by using E-strips (Biodisk Ltd., Solna, Sweden) according to the manufacturer's instructions.
(§2) The strains originated from ATCC (11 strains), CCUG (11 strains), and NCTC (The National Collection of Type Cultures, Colindale, U.K.; 2 strains). Eight strains (the F-strains) were purchased from Mobidiag Ltd., Helsinki, Finland. The source of E. coli IH3080 has been given in Example 2. Sensitization factor was defined as in Example 7.

E. coli CCUG41425 = experiment: as above; format: cell-based, Escherichia coli
Procedure: as §1, §2

E. coli NCTC13351 = experiment: as above; format: cell-based, Escherichia coli
Procedure: as §1, §2

E. coli CCUG41424 = experiment: as above; format: cell-based, Escherichia coli
Procedure: as §1, §2

E. coli CCUG41421 = experiment: as above; format: cell-based, Escherichia coli
Procedure: as §1, §2

E. coli CCUG41432 = experiment: as above; format: cell-based, Escherichia coli
Procedure: as §1, §2

E. coli CCUG41427 = experiment: as above; format: cell-based, Escherichia coli
Procedure: as §1, §2

S. marcescens ATCC8100 = experiment: as above; format: cell-based, Serratia marcescens
Procedure: as §1, §2

E. coli IH3080 (K1:O18) = experiment: Experimental E. coli peritonitis model in mice; format: in vivo; details: 4.5 h postinfection ([…] after the treatment), 5 mg/kg subcutaneous
Procedure: A suspension of E. coli IH3080 (K1:O18) in saline (0.9% NaCl) was prepared from an overnight culture on a blood agar plate (Statens Serum Institut, Copenhagen, Denmark). All mice (female NMR1 from Harlan Scandinavia, Allerød, Denmark; weight, 25-30 g) were inoculated intraperitoneally with 0.5 ml of the suspension containing 0.96×10^6 CFU per ml in the lateral lower quadrant of the abdomen. At 1 h, the CFU count was determined from three mice and the remaining mice (four mice per group) were treated with a subcutaneous injection of 0.2 ml of erythromycin solution in saline (corresponding to 5 mg/kg body weight) or NAB7061 solution in saline (corresponding to 5 mg/kg body weight), or both erythromycin and NAB7061 (corresponding to 5 mg/kg body weight of both drugs; given at two separate sites). Control group received two 0.2 ml injections of saline. At 4.5 h postinfection, all mice were anaesthetized with CO2 and sacrificed. Sterile saline (2 ml) was injected intraperitoneally and the abdomen was gently massaged before it was opened and the fluid sampled. Appropriate dilutions of the fluid were plated on blood agar plates, the plates were incubated overnight, and the colonies were counted.

[1] = system: Pseudomonas aeruginosa ATCC 27853; experiment: Well diffusion growth inhibition on LB agar plates (direct antibacterial activity); format: cell-based; details: Ps. aeruginosa ATCC 27853
Method in brief: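 Pseudomonas aeruginosa ATCC 27853 was tested for direct antibacterial susceptibility by agar well diffusion. A suspension of about 10^8 cells/ml in 0.9% NaCl was spread over LB agar and the excess removed. After drying, 2 mm wells were drilled and filled with compound dissolved in 0.9% NaCl, with NaCl alone as control. Plates were incubated 18 h at 37° C, and inhibition zone diameters were measured and converted to areas in square mm.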

[2] = system: Acinetobacter baumannii ATCC 19606; experiment: as above; format: cell-based; details: A. baumannii ATCC 19606
Method in brief: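 Direct antibacterial activity against Acinetobacter baumannii ATCC 19606 was measured by agar well diffusion on LB plates. The plates were flooded with a suspension of approx. 10^8 cells/ml in 0.9% NaCl, and the excess was removed. Once the surface dried, five wells of 2 mm diameter were drilled per plate. The wells were filled with test compound dissolved in 0.9% NaCl, with plain 0.9% NaCl as control. After 18 h at 37° C., inhibition zone diameters were measured and converted to growth inhibition areas in square mm.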

E. cloacae CCUG52947 = experiment: E-test MIC of antibiotics on Mueller-Hinton agar with or without NAB7061 (4 μg/ml); sensitization factor = MIC ratio absence/presence; format: cell-based, Enterobacter cloacae
Procedure: as §1, §2

E. cloacae F232 = experiment: as above; format: cell-based, Enterobacter cloacae
Procedure: as §1, §2

E. cloacae F230 = experiment: as above; format: cell-based, Enterobacter cloacae
Procedure: as §1, §2

[3] = system: three strains of A. baumannii; experiment: E-test sensitization by NAB7061 (4 μg/ml), summary over A. baumannii strains; format: cell-based, Acinetobacter baumannii
Source text: as §2
Strains of K. pneumoniae remained somewhat more resistant to both antibiotics, and the sensitization factors varied between 10 and 500.

K. pneumoniae F144 = experiment: E-test MIC of antibiotics on Mueller-Hinton agar with or without NAB7061 (4 μg/ml); sensitization factor = MIC ratio absence/presence; format: cell-based, Klebsiella pneumoniae
Procedure: as §1, §2

K. pneumoniae F145 = experiment: as above; format: cell-based, Klebsiella pneumoniae
Procedure: as §1, §2

K. pneumoniae F136 = experiment: as above; format: cell-based, Klebsiella pneumoniae
Procedure: as §1, §2

K. pneumoniae CCUG45421 = experiment: as above; format: cell-based, Klebsiella pneumoniae; details: NAB 7061 4 μg/ml
Procedure: as §1, §2

S. maltophilia ATCC17444 = experiment: as above; format: cell-based
Procedure: as §1, §2

[4] = system: E. coli (ATCC25922 and IH3080), K. pneumoniae ATCC13883, and E. cloacae ATCC23355; experiment: E-test sensitization by NAB7061 (4 μg/ml), summary over the tested strains of Table 7; format: cell-based; details: range over the tested strains
Procedure: as §1

CCCCCCCC(=O)N[C@H](C(=O)N[C@@H](CC)C(=O)N[C@H]1CCNC(=O)[C@H]([C@@H](C)O)NC(=O)[C@H](CCN)NC(=O)[C@H](CCN)NC(=O)[C@H](CC(C)C)NC(=O)[C@@H](Cc2ccccc2)NC(=O)[C@H](CCN)NC1=O)[C@@H](C)O [NAB 7061, OA-Thr-Abu-cy[Dab-Dab-DPhe-Leu-Dab-Dab-Thr-]] (Octanoyl-T[Abu][Dab][Dab][dF]L[Dab][Dab]T; lactam 3-C)
MIC of clarithromycin in the presence of 4 μg/ml of NAB 7061 (E. coli CCUG41422): 0.25 µg/mL | Sensitization factor to rifampin (E. coli CCUG41422; NAB 7061 4 μg/ml): 170-256 | MIC of clarithromycin in the presence of 4 μg/ml of NAB 7061 (E. coli CCUG41425): 0.047 µg/mL | MIC of clarithromycin in the presence of 4 μg/ml of NAB 7061 (E. coli NCTC13351): 0.032 µg/mL | MIC of rifampin in the presence of 4 μg/ml of NAB 7061 (E. coli NCTC13351): 0.032 to 0.047 µg/mL | Sensitization factor to rifampin (E. coli NCTC13351; NAB 7061 4 μg/ml): 340-500 | MIC of clarithromycin in the presence of 4 μg/ml of NAB 7061 (E. coli CCUG41424): 0.125 µg/mL | Sensitization factor to rifampin (E. coli CCUG41424; NAB 7061 4 μg/ml): 85-94 | MIC of clarithromycin in the presence of 4 μg/ml of NAB 7061 (E. coli CCUG41421): 0.125 µg/mL | MIC of clarithromycin in the presence of 4 μg/ml of NAB 7061 (E. coli CCUG41432): 0.064 µg/mL | MIC of rifampin in the presence of 4 μg/ml of NAB 7061 (E. coli CCUG41432): 0.032 µg/mL | Sensitization factor to rifampin (E. coli CCUG41432; NAB 7061 4 μg/ml): 180-250 | MIC of clarithromycin in the presence of 4 μg/ml of NAB 7061 (E. coli CCUG41427): 0.064 µg/mL | MIC of rifampin in the presence of 4 μg/ml of NAB 7061 (E. coli CCUG41427): 0.032 to 0.064 µg/mL | Sensitization factor to rifampin (E. coli CCUG41427; NAB 7061 4 μg/ml): 100-250 | MIC of rifampin in the presence of 4 μg/ml of NAB 7061 (S. marcescens ATCC8100): 16 µg/mL | CFU counts in peritoneal fluid (E. coli IH3080 (K1:O18)): 1.1 (±0.6)×10^6 per ml | Antibacterial activity (growth inhibition area around a well) ([1]; 4 μg per well): 0 square millimeters | Antibacterial activity (growth inhibition area around a well) ([1]; 10 μg per well): 0 square millimeters | Antibacterial activity (growth inhibition area around a well) ([2]; 4 μg per well): 0 square millimeters | Antibacterial activity (growth inhibition area around a well) ([2]; 10 μg per well): 0 square millimeters | MIC of rifampin in the presence of 4 μg/ml of NAB 7061 (E. cloacae CCUG52947): 0.032 to 0.047 µg/mL | Sensitization factor to rifampin (E. cloacae CCUG52947; NAB 7061 4 μg/ml): 500-1000 | MIC of clarithromycin in the presence of 4 μg/ml of NAB 7061 (E. cloacae F232): 0.094 µg/mL | MIC of rifampin in the presence of 4 μg/ml of NAB 7061 (E. cloacae F232): 0.023 µg/mL | MIC of clarithromycin in the presence of 4 μg/ml of NAB 7061 (E. cloacae F230): 0.047 µg/mL | MIC of rifampin in the presence of 4 μg/ml of NAB 7061 (E. cloacae F230): 0.016 to 0.032 µg/mL | Resulting MIC to rifampin in the presence of NAB7061 (4 μg/ml) [3]: ≤ 0.125 µg/mL | MIC of rifampin in the presence of 4 μg/ml of NAB 7061 (K. pneumoniae F144): 0.19 µg/mL | Sensitization factor to rifampin (K. pneumoniae F144; NAB 7061 4 μg/ml): >170 | MIC of clarithromycin in the presence of 4 μg/ml of NAB 7061 (K. pneumoniae F145): 0.25 µg/mL | MIC of rifampin in the presence of 4 μg/ml of NAB 7061 (K. pneumoniae F145): 0.19 to 0.25 µg/mL | MIC of clarithromycin in the presence of 4 μg/ml of NAB 7061 (K. pneumoniae F136): 2 µg/mL | MIC of rifampin in the presence of 4 μg/ml of NAB 7061 (K. pneumoniae F136): 0.75 µg/mL | Sensitization factor to rifampin (K. pneumoniae CCUG45421): 10-20 | MIC of rifampin in the presence of 4 μg/ml of NAB 7061 (S. maltophilia ATCC17444): 2 µg/mL | Sensitization factor to azithromycin [4]: 31-94 | Sensitization factor to clarithromycin [4]: 63-380
